Experimental data reported in US4677107A, “Anti-peptic ulcer agent” (Dainippon Pharmaceutical Co., Ltd., priority 1983, dated 1987).
Structures can show the parent of a compound that is named as a salt. Where two headings read alike, the source gives them in different places.

Key:
[1] = U.S. Pat. No. 4,237,135 and U.K. Pat. No. 2,017,698; cited from earlier work
[2] = U.S. Pat. No. 3,542,785 and 3,668,207; cited from earlier work
[3] = U.S. Pat. No. 3,542,785 and 3,668,207; cited from earlier work; remark: listed apart in the source
[4] = tested on: ulceration induced by exposure to stress (restraint and water immersion); assay: Effect on the ulceration induced by exposure to stress (restraint and water immersion); assay type: in vivo, male Wistar strain rats; settings: for ED50: Rattus norvegicus, po, 30 minutes before immersion, rats, read-out: ED50 (dose required for 50% inhibition of the ulcer index)
Protocol: [I] Effect on the ulceration induced by exposure to stress (restraint and water immersion): Male Wistar strain rats (weighing, about 200 g) were placed in a stress cage which served to immobilize the animals therein and then immersed in a water bath of 23° C. to the height of xiphoid of the animals according to the method of Takagi et al. [cf. Takagi, K. and Okabe, S., Japan. J. Pharmacol., 18, 9 (1968)]. After 20 hours, the animals were sacrificed and the stomach was removed. The stomach was inflated with 13 ml of saline and placed in 5% formalin solution for 5 minutes. After washing with saline, the stomach was cut open along the greater curvature and the length (mm) of each lesion in the glandular portion was measured using a dissecting microscope (×12). The sum of the length (mm) of each lesions in a stomach was indicated as an ulcer index. In case of reference experiment using butylscopolamine bromide, a photograph of the mucosal surface of stomach was taken after the stomach was treated in the same manner as described above. The photograph was magnified by nine times, and the sum of the area (mm^2) of each lesions in a stomach was indicated as an ulcer index. The ulcer index in drug treated groups was compared with that in control group, and thereby, inhibitory percentage was calculated and then ED50 value, i.e., the dose required for 50% inhibition of the ulcer index, was determined by the usual graphic method. Drugs to be tested were suspended in 0.5% tragacanth solution and administered orally 30 minutes before the immersion. In the control group, a vehicle (0.5% tragacanth solution) was administered.

[5] = tested on: ulceration induced by pylorus-ligation; assay: Effect on the ulceration induced by pylorus-ligation in rats; assay type: in vivo, male Wistar strain rats; settings: for ED50: Rattus norvegicus, po, 30 minutes before ligation, rats, 18 hours, ulcer index 0 to 5, read-out: ED50 (dose required for 50% inhibition of ulcer index)
Protocol: [II] Effect on the ulceration induced by pylorus-ligation in rats: Male Wistar strain rats (weighing about 190 g) were fasted for 48 hours before experiment. The pylorus of each rat was ligated under ether anaesthesia according to the method of Shay et al. [cf. Shay, H., et al., Gastroenterology, 5, 43-61 (1945)]. Each of the animals was then allowed to stand abstained from food and water in a cage. After 18 hours, the animals were sacrificed under ether anaesthesia, and the stomachs were removed and cut open along the greater curvature. […] 4: marked ulcers more than two 5: perforated ulcer The ulcer index in drug treated groups was compared to that in the control group, and thereby, the inhibitory percentage was calculated and then ED50, i.e. the dose required for 50% inhibition of ulcer index, was determined by the usual graphic method. Drugs to be tested were suspended in 0.5% tragacanth solution and administered 30 minutes before the ligation. In the control group, a vehicle (0.5% tragacanth solution) was administered.

gastric secretion = assay: Effect on gastric secretion in rats (pylorus ligation, total acid content); assay type: in vivo, male Wistar strain rats; settings: for ED50: Rattus norvegicus, po, 30 minutes before ligation, rats, 4 hours after ligation, read-out: ED50 (dose required for 50% reduction of acid content)
Protocol: [III] Effect on gastric secretion in rats: Male Wistar strain rats (weighing, about 200 g) were fasted for 24 hours before experiment. The pylorus was ligated under ether anaesthesia. Four hours after the ligation, the stomach was removed under ether anaesthesia. The gastric content was collected and centrifuged, and the secretory volume, pH and acid content of the supernatant were measured. The acid content was measured by titrating to pH 7.0 with 0.02N NaOH using pH meter (Hitachi Horiba, M-5). The total acid content of the drug treated groups was compared with that of the control group, and thereby, the reduction percentage of acid content was calculated and then ED50, i.e. the dose required for 50% reduction of acid content, was determined by the usual graphic method. Drugs to be tested were suspended in 0.5% tragacanth solution and administered orally 30 minutes before the ligation. In the control group, a vehicle (0.5% tragacanth solution) was administered.

pupil size = assay: Mydriatic action in rats; assay type: in vivo, male Wistar strain rats; settings: for Percent mydriasis: one hour after administration, 3 mm dilation = 100 percent
From the text: [IV] Mydriatic action in rats:
Male Wistar strain rats (weighing, 150-200 g) were used. Pupil size of the animals was twice measured microscopically just before and one hour after administration of drugs at a distance of 30 cm from the source of a constant light (30 W fluorescent light) according to the method of Pulewka [cf. Arch. exp. Path. U. Pharmakol., 168, 307 (1932)]. Based on the change between the first measured pupil size and the second measured pupil size, mydriasis percentage was calculated provided that mydriasis percentage is supposed to be 100 percent in case of 3 mm dilation of pupil size in diameter. Drugs to be tested were suspended in 0.5% tragacanth solution and administered. In the control group, a vehicle (0.5% tragacanth solution) was administered.

[6] = tested on: contraction of ileum preparation by acetylcholine; assay: Anti-acetylcholine action (isolated ileum contraction by acetylcholine); set-up: species or system male Hartley guinea-pigs; settings: for IC50 (50% inhibition concentration), contraction of ileum by acetylcholine: acetylcholine chloride 2×10^-8 g/ml, drug added 2 minutes prior, 35° C.; for anti-acetylcholine activity (in words): isolated guinea-pig ileum
Protocol: [IV] Anti-acetylcholine action:
A piece of ileum, taken from male Hartley guinea-pigs (weighing 250-350 g) was suspended longitudinally in a bath containing Tyrode solution (20 ml) under constant bubbling of 95% oxygen and 5% carbon dioxide gas at 35° C. The contraction of the preparation by acetylcholine chloride (2×10^-8 g/ml) was recorded on an oscillograph (Nihonkoden, RJG-3004) via an isotonic transducer (Nihonkoden, TD-111S). Drugs to be tested (Compound A and Compound C) were added to the bath 2 minutes prior to the application of acetylcholine chloride. The average percent inhibition of the test Compound A against the contraction of ileum preparation by acetylcholine is shown in the accompanying FIG. 1. Based on the average percent inhibition on the graph, IC50, i.e. 50% inhibition concentration of the test compound, was calculated. […] IC50 of Compound C was calculated likewise. As a result, it was 1.9× 10^-6 g/ml.

[7] = ulcer index = sum of length (mm) of lesions
[8] = 1 mg/kg p.o., ulcer index = sum of length (mm) of lesions
[9] = 2 mg/kg p.o., ulcer index = sum of length (mm) of lesions
[10] = 5 mg/kg p.o., ulcer index = sum of length (mm) of lesions

Row | Structure (SMILES) | anti-inflammatory activity [2] | diuretic activity [3] | Ulcer index Inhibitory % ([5]; 50 mg/kg p.o.) | Ulcer index Inhibitory % ([5]; 100 mg/kg p.o.) | Ulcer index Inhibitory % ([5]; 200 mg/kg p.o.) | ED50 [5] | Total acid content Reduction % (gastric secretion; 20 mg/kg p.o.) | Total acid content Reduction % (gastric secretion; 50 mg/kg p.o.) | ED50 (gastric secretion) | ED50 [4, 7] | Ulcer index Inhibitory % [4, 8] | Ulcer index Inhibitory % [4, 9] | Ulcer index Inhibitory % [4, 10] | Ulcer index Inhibitory % ([5]; 5 mg/kg p.o.) | Ulcer index Inhibitory % ([5]; 10 mg/kg p.o.) | Ulcer index Inhibitory % ([5]; 20 mg/kg p.o.) | Total acid content Reduction % (gastric secretion; 1 mg/kg p.o.) | Total acid content Reduction % (gastric secretion; 2 mg/kg p.o.) | Total acid content Reduction % (gastric secretion; 5 mg/kg p.o.) | IC50 (50% inhibition concentration), contraction of ileum by acetylcholine [6] | further results
1 | CN1CCN(c2cc(-c3ccccc3)c3cc(Cl)ccc3n2)CC1 [6-chloro-2-(4-methyl-1-piperazinyl)-4-phenylquinoline] | have anti-inflammatory activity | diuretic activity | – | – | – | – | – | – | – | – | – | – | – | – | – | – | – | – | – | – | anti-reserpine activity [1]: weak anti-reserpine activity
2 | Clc1ccc2nc(N3CCN(c4ccccc4)CC3)cc(-c3ccccc3)c2c1 [6-chloro-2-(4-phenyl-1-piperazinyl)-4-phenylquinoline] | have anti-inflammatory activity | diuretic activity | – | – | – | – | – | – | – | – | – | – | – | – | – | – | – | – | – | – | –
3 | CCCC[N+]1(C)[C@@H]2C[C@@H](OC(=O)[C@H](CO)c3ccccc3)C[C@H]1[C@@H]1O[C@@H]12 (stereo partly shown) [Butylscopolamine bromide, butylscopolamine bromide, reference compound] | – | – | 19.0% | 28.6% | 38.1% | > 200 mg/kg | 44.3% | 71.0% | 25 mg/kg | – | – | – | – | – | – | – | – | – | – | – | Ulcer index Inhibitory % ([4]; 20 mg/kg p.o., ulcer index = sum of area (mm^2) of lesions): -2.1%; Ulcer index Inhibitory % ([4]; 50 mg/kg p.o., ulcer index = sum of area (mm^2) of lesions): 44.1%; Ulcer index Inhibitory % ([4]; 100 mg/kg p.o., ulcer index = sum of area (mm^2) of lesions): 97.8%; ED50 ([4]; ulcer index = sum of area (mm^2) of lesions from photograph): 49.1 mg/kg; Total acid content Reduction % (gastric secretion; 100 mg/kg p.o.): 83.7%
4 | CN/C(=N/CCSCc1nc[nH]c1C)NC#N [Cimetidine, reference compound] | – | – | 0% | 9.1% | 42.4% | 253 mg/kg | 44.0% | 71.6% | 26.8 mg/kg | 26.9 mg/kg | – | – | – | – | – | – | – | – | – | – | Ulcer index Inhibitory % ([4]; 20 mg/kg p.o., ulcer index = sum of length (mm) of lesions): 29.1%; Ulcer index Inhibitory % ([4]; 50 mg/kg p.o., ulcer index = sum of length (mm) of lesions): 75.0%; Ulcer index Inhibitory % ([4]; 100 mg/kg p.o., ulcer index = sum of length (mm) of lesions): 77.0%; Ulcer index Inhibitory % ([5]; 500 mg/kg p.o.): 75.8%; Total acid content Reduction % (gastric secretion; 10 mg/kg p.o.): 9.4%
5 | CCN1CCN(c2cc(-c3ccccc3)c3ccccc3n2)CC1 [Compound A, 2-(4-ethyl-1-piperazinyl)-4-phenylquinolinedihydrochloride] | – | – | 76.5% | – | – | 16 mg/kg | – | – | 1.8 mg/kg | 2.8 mg/kg | 15.5% | 40.8% | 85.2% | 35.3% | 41.2% | 52.9% | 34.7% | 54.5% | 73.1% | 1.2 µg/mL | Ulcer index Inhibitory % ([4]; 10 mg/kg p.o., ulcer index = sum of length (mm) of lesions): 88.4%; Total acid content Reduction % (gastric secretion; 0.5 mg/kg p.o.): 18.2%; Percent mydriasis (pupil size; 5 mg/kg p.o.): 4.0%; Percent mydriasis (pupil size; 10 mg/kg p.o.): 2.7%; Percent mydriasis (pupil size; 20 mg/kg p.o.): 2.7%; Percent mydriasis (pupil size; 50 mg/kg p.o.): 1.3%; Percent mydriasis (pupil size; 100 mg/kg p.o.): 2.6%; mydriatic action (in words) (pupil size; rats, up to 100 mg/kg): did entirely not show any mydriatic action even in a dose of 100 mg/kg; anti-acetylcholine activity (in words) [6]: extremely weak
6 | O=C(O)/C=C\C(=O)O.c1ccc(-c2cc(N3CCNCC3)nc3ccccc23)cc1 [Compound C, 2-(1-piperazinyl)-4-phenylquinoline monomaleate] | – | – | 75.0% | – | – | 14 mg/kg | – | – | 1.1 mg/kg | 0.45 mg/kg | 55.9% | 73.6% | 71.8% | 37.5% | 43.8% | 56.3% | 45.3% | 71.3% | 86.3% | 1.9 µg/mL | Ulcer index Inhibitory % ([4]; 0.2 mg/kg p.o., ulcer index = sum of length (mm) of lesions): 45.8%; Ulcer index Inhibitory % ([4]; 0.5 mg/kg p.o., ulcer index = sum of length (mm) of lesions): 55.5%; anti-acetylcholine activity (in words) [6]: extremely weak
